Laboratory results as given in article PMC8951750, “In Vitro Anticancer and Cancer-Preventive Activity of New Triterpene Glycosides from the Far Eastern Starfish Solaster pacificus” (Marine Drugs, 2022).
“And” between values parts separate entries of the source, which are not always exact repeats. Identical values can stand only once. Like-named read-outs stand apart in the source and are kept apart here.

How the values were obtained:
JB6 Cl41 cells [1] = assay: Soft agar assay, EGF-induced neoplastic cell transformation; format: cell-based, mouse; details: compound 0.1 µM, EGF 1 ng/mL, soft agar, 2 weeks, vs positive control; 0.1 µM
Protocol: (§1) JB6 Cl41 cells (2.4 × 10^4) were exposed to epidermal growth factor (EGF) (1 ng/mL) or phorbol 12-myristate 13-acetate (TPA) (10 ng/mL) and treated either with DMSO (control) or the triterpene glycosides 1–9 from S. pacificus (0.1, 0.5, and 1 µM) in 1 mL of 0.3% basal medium Eagle (BME) agar containing 10% FBS, 2 mM L-glutamine, and 25 µg/mL gentamicin (agar mix). The cultures were maintained in a humidified atmosphere with 5% CO2 at 37 °C for 14 days, and the cell’s colonies were scored using a microscope, Motic AE 20 (XiangAn, Xiamen, China), and the ImageJ software bundled with 64-bit Java 1.8.0_112 (NIH, Bethesda, MD, USA). To determine the effect of investigated compounds on neoplastic cell transformation induced by ionizing radiation (X-ray or UVB), JB6 Cl41 cells (3 × 10^5/dish) were seeded in 60 mm dishes and cultured for 24 h at 37 °C in 5% CO2 incubator. Then, the cells were exposed to X-rays (X-ray system XPERT 80 (KUB Technologies, Inc, Milford, CT, USA)) at dose of 0.5 Gy or UVB (wavelengths below 312 nm) (Bio-Link UV irradiation system, Vilber, France) at dose of 0.3 J/cm^2 three times a week for 3 weeks. Irradiated JB6 Cl41 cells (2.4 × 10^4) were treated either with DMSO (control) or the triterpene glycosides 1–9 from S. pacificus (0.1, 0.5, and 1 µM) in 1 mL of agar mix. The cultures were maintained in a humidified atmosphere with 5% CO2 at 37 °C for 14 days, and the cell’s colonies were scored using a microscope, Motic AE 20 (XiangAn, Xiamen 361101, China), and the ImageJ software bundled with 64-bit Java 1.8.0_112 (NIH, Bethesda, MD, USA).

[2] = system: non-cancerous mouse epidermal cells JB6 Cl41; assay: Cell viability, MTS assay, JB6 Cl41; format: cell-based
Protocol: (§2) MTS assay was used to measure the cell viability of tested normal and cancer cells. Cells were seeded into 96-well plates (“Jet Biofil”, Guangzhou, China) at density of 1.0 × 10^4/200 µL for 24 h at 37 °C in a 5% CO2 incubator. Then, cell monolayer was treated either with DMSO (control) or various concentrations of the triterpene glycosides 1–9 from S. pacificus (0.1, 0.5, 2.5, 12.5, 62.5 µM) in fresh appropriate culture medium for 24 h. Subsequently, the cells were incubated with 15 µL of 3-(4,5-dimethylthiazol-2-yl)-5-(3-carboxymethoxyphenyl)-2-(4-sulfophenyl)-2H-tetrazolium (MTS reagent) (“Promega”, Madison, WI, USA) for 3 h, and the absorbance of each well was measured at 490/630 nm using Power Wave XS microplate reader (“BioTek”, Wynusky, VT, USA). The concentration at which the compounds exert half of their maximal inhibitory effect on cell viability (IC50) was calculated by the AAT-Bioquest® online calculator [39]. The selectivity index (SI) was calculated as described previously using the following formula SI = IC50 of the compounds in normal cell (JB6 Cl41)/IC50 of the same compounds in human melanoma cell lines (SK-MEL-2, SK-MEL-28, or RPMI-7951).

SK-MEL-2 cells = assay: Soft agar assay, colony formation of cancer cells; format: cell-based, human; details: compound 0.1 µM, 14 days
Protocol: SK-MEL-2 cells (2.4 × 10^4) were treated either with DMSO (control) or the triterpene glycosides 1–9 from S. pacificus (0.1 µM) in 1 mL of agar mix. After 14 days, colonies of cancer cells were scored as described above.

JB6 Cl41 cells [3] = assay: Soft agar assay, X-ray-induced neoplastic cell transformation; format: cell-based, mouse; details: for inhibition at 0.1 µM: Mus musculus, JB6 Cl41, 504 h, read-out: inhibition of X-ray-induced cell transformation (JB6 Cl41 colonies formation), compound 0.1 µM, X-rays 0.5 Gy three times a week for 3 weeks, soft agar
Protocol: as §1

[4] = system: human melanoma cells RPMI-7951; assay: Cell viability, MTS assay, RPMI-7951; format: cell-based; details: for SI (selectivity index) RPMI-7951: IC50 JB6 Cl41 / IC50 RPMI-7951
Protocol: as §2

[5] = system: Human erythrocytes (O(I)+); assay: Hemolysis assay; format: cell-based; details: 1 h, 37 °C, PBS pH 7.4
Protocol: Human erythrocytes (O(I)+) were obtained from Vladivostok blood transfusion station. Erythrocytes were centrifuged with PBS (pH 7.4) for 5 min at 4 °C by 450× g on a LABOFUGE 400R (Heraeus, Hanau, Germany) centrifuge three times. Then, the residue of erythrocytes was resuspended in ice-cold PBS (pH 7.4) to a final optical density of 2.0 at 700 nm and kept on ice. For the hemolytic assay, 180 µL of erythrocyte suspension was mixed with 20 µL of Cucumarioside A2-2 (positive control) and investigated compounds at concentrations range of 0.1, 0.5, 1, 5, 10 µM in V-bottom 96-well plates. After 1 h of incubation at 37 °C, plates were centrifuged at 900× g for 10 min on an LMC-3000 (Biosan, Riga, Latvia) laboratory centrifuge. Then, we carefully selected 100 µL of supernatant and transferred it to new flat plates, respectively. Lysis of erythrocytes was determined by measuring the concentration of hemoglobin in the supernatant with a microplate photometer Multiskan FC (Thermo Fisher Scientific, Waltham, MA, USA) at 570 nm. The effective dose causing 50% of erythrocytes hemolysis (ED50) was calculated using the computer program SigmaPlot 10.0. All experiments were made in triplicate, p < 0.01.

JB6 Cl41 cells [6] = assay: Soft agar assay, UVB-induced neoplastic cell transformation; format: cell-based, mouse; details: for inhibition at 0.1 µM: Mus musculus, JB6 Cl41, light or radiation study, 504 h, read-out: inhibition of UVB-induced neoplastic cell transformation (decrease of colonies number), compound 0.1 µM, UVB 0.3 J/cm^2 three times a week for 3 weeks, soft agar
Protocol: as §1

[7] = system: human melanoma cells SK-MEL-2; assay: Cell viability, MTS assay, SK-MEL-2; format: cell-based; details: for SI (selectivity index) SK-MEL-2: IC50 JB6 Cl41 / IC50 SK-MEL-2
Protocol: as §2

[8] = system: human melanoma cells SK-MEL-28; assay: Cell viability, MTS assay, SK-MEL-28; format: cell-based; details: for SI (selectivity index) SK-MEL-28: IC50 JB6 Cl41 / IC50 SK-MEL-28
Protocol: as §2

JB6 Cl41 cells [9] = assay: Soft agar assay, TPA-induced neoplastic cell transformation; format: cell-based, mouse; details: compound 0.1 µM, TPA 10 ng/mL, soft agar, 2 weeks, vs positive control; 0.1 µM
Protocol: as §1

[10] = read-out: IC50, cell viability SK-MEL-2, MTS assay, 24 h

| Compound | inhibition of EGF-induced neoplastic transformation of JB6 Cl41 cells (JB6 Cl41 cells [1]) [%] | decrease of colonies number of SK-MEL-2 cells (colony formation) (SK-MEL-2 cells) [%] | inhibition at 0.1 µM (JB6 Cl41 cells [3]) [%] | SI (selectivity index) RPMI-7951 [4] | ED50, effective dose causing 50% of erythrocytes hemolysis [5] | inhibition at 0.1 µM (JB6 Cl41 cells [6]) [%] | SI (selectivity index) SK-MEL-2 [7] | IC50 [7, 10] [µM] | SI (selectivity index) SK-MEL-28 [8] | inhibition of TPA-induced neoplastic transformation of JB6 Cl41 cells (JB6 Cl41 cells [9]) [%] | other results |
| --- | --- | --- | --- | --- | --- | --- | --- | --- | --- | --- | --- |
| COC1C(O)COC(OC2C(O)C(COS(=O)(=O)O)OC(OC3C(C)OC(OC4C(OC5CCC6(C)C7CCC89C(=O)OC(C)(C=CC=C(C)C)C8C(OC(C)=O)CC9(C)C7=CCC6C5(C)C)OCC(O)C4O)C(O)C3O)C2O)C1O [Compound 3, 3β-O-{3-O-methyl-β-D-xylopyranosyl-(1→3)-6-sulfoxy-β-D-glucopyranosyl-(1→4)-β-D-quinovopyranosyl-(1→2)-β-D-xylopyranosyl}-16β-acetoxyholosta-7,22E,24-triene] | 70 | 34 | 26 | 0.22 | 0.72 µM and 0.72 ± 0.05 µM | 13 | 8.8 | 0.68 ± 0.06 | 0.4 | 36 | IC50 ([2]; Mus musculus, JB6 Cl41, 24 h, read-out: IC50, cell viability JB6 Cl41, MTS assay, 24 h, normal cells): 6 ± 0.1 µM; IC50 ([4]; Homo sapiens, RPMI-7951, 24 h, read-out: IC50, cell viability RPMI-7951, MTS assay, 24 h): 27.9 ± 0.09 µM; IC50 ([7]; Homo sapiens, SK-MEL-2, 24 h, read-out: IC50, cell viability SK-MEL-2, MTS assay, 24 h): < 1 µM; IC50 ([8]; Homo sapiens, SK-MEL-28, 24 h, read-out: IC50, cell viability SK-MEL-28, MTS assay, 24 h): 14.8 ± 0.03 µM |
| COC1C(O)C(CO)OC(OC2C(O)C(CO)OC(OC3C(C)OC(OC4C(OC5CCC6(C)C7CCC89C(=O)OC(C)(C=CC=C(C)C)C8C(OC(C)=O)CC9(C)C7=CCC6C5(C)C)OCC(O)C4O)C(OC4OCC(O)C(O)C4O)C3O)C2O)C1O (centres unmarked) [Compound 4, cucumarioside D] | 92 | 70 | 97 | 0.2 | 2.48 µM and 2.48 ± 0.05 µM | 86 |  | 0.67 ± 0.04 |  | 99 | IC50 ([2]; read-out: IC50, cell viability JB6 Cl41, MTS assay, 24 h, normal cells): 6.1 ± 0.4 µM; IC50 ([4]; read-out: IC50, cell viability RPMI-7951, MTS assay, 24 h): 29.2 ± 0.04 µM; IC50 ([8]; read-out: IC50, cell viability SK-MEL-28, MTS assay, 24 h): 8.3 ± 0.1 µM |
| CC(=O)OC1CC2(C)C3=CCC4C(C)(C)C(OC5OCC(O)C(O)C5OC5OC(C)C(OC6OC(CO)C(O)C(O)C6O)C(O)C5OC5OCC(O)C(O)C5O)CCC4(C)C3CCC23C(=O)OC(C)(C=CC=C(C)C)C13 [Compound 5, 3β-O-{β-D-glucopyranosyl-(1→4)-[β-D-xylopyranosyl-(1→2)]-β-D-quinovopyranosyl-(1→2)-β-D-xylopyranosyl}-16β-acetoxyholosta-7,22Z,24-triene] | 16 | 13 |  | 0.23 | 7.02 ± 0.46 µM |  | 0.2 |  | 0.3 | 17 | IC50 ([2]; MTS assay, 24 h, normal cells, read-out: IC50, cell viability JB6 Cl41): 8.7 ± 0.2 µM; inhibition of X-ray-induced cell transformation (JB6 Cl41 colonies formation) (JB6 Cl41 cells [3]; compound 0.1 µM, X-rays 0.5 Gy three times a week for 3 weeks, soft agar): less than 15%; IC50 ([4]; MTS assay, 24 h, read-out: IC50, cell viability RPMI-7951): 38 ± 0.3 µM; inhibition of UVB-induced neoplastic cell transformation (decrease of colonies number) (JB6 Cl41 cells [6]; compound 0.1 µM, UVB 0.3 J/cm^2 three times a week for 3 weeks, soft agar): not effective; IC50 ([7]; MTS assay, 24 h, read-out: IC50, cell viability SK-MEL-2): 37.3 ± 0.01 µM; IC50 ([8]; MTS assay, 24 h, read-out: IC50, cell viability SK-MEL-28): 25.3 ± 0.09 µM |
